In ChEMBL document CHEMBL1137923, “Identification of CJC-1131-albumin bioconjugate as a stable and bioactive GLP-1(7-36) analog” (Bioorg Med Chem Lett, 2004):

Tests used:
[1] = target: T1, Glucagon-like peptide 1 receptor (Homo sapiens, UniProt P43220); test: Inhibitory concentration required against human GLP1 receptor expressed in CHO cell membrane homogenates; assay type: cell-based
[2] = target: T1, Glucagon-like peptide 1 receptor; test: Effective concentration against human GLP1 receptor expressed in CHO cells; assay type: cell-based

T1 sequence (P43220 whole entry): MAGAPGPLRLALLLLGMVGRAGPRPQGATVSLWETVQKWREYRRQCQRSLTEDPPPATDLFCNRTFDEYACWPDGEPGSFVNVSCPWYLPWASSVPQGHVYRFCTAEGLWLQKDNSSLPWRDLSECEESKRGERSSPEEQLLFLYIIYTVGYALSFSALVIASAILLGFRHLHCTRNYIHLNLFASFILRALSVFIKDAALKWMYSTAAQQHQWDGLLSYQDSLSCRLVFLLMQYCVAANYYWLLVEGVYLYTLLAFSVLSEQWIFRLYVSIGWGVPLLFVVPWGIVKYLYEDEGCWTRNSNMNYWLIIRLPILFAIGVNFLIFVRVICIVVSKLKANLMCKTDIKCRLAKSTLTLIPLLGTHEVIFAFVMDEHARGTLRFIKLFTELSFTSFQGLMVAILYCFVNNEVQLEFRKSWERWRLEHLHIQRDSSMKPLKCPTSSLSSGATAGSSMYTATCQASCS

IC50 [1] [nM] | EC50 [2] [nM] | Compound
> 10000 | > 1000 | CC[C@H](C)[C@H](NC(=O)[C@H](CCCCNC(=O)COCCOCCNC(=O)CCN1C(=O)C=CC1=O)NC(=O)[C@H](CCC(=O)O)NC(=O)[C@H](CCCCN)NC(=O)[C@H](C)NC(=O)[C@H](C)NC(=O)[C@H](CCC(N)=O)NC(=O)CNC(=O)[C@H](CCC(=O)O)NC(=O)[C@H](CC(C)C)NC(=O)[C@H](Cc1ccc(O)cc1)NC(=O)[C@H](CO)NC(=O)[C@H](CO)NC(=O)[C@@H](NC(=O)[C@H](CC(=O)O)NC(=O)[C@H](CO)NC(=O)[C@@H](NC(=O)[C@H](Cc1ccccc1)NC(=O)[C@@H](NC(=O)CNC(=O)[C@H](CCC(=O)O)NC(=O)[C@H](C)NC(=O)[C@@H](N)Cc1c[nH]cn1)[C@@H](C)O)[C@@H](C)O)C(C)C)C(=O)N[C@@H](C)C(=O)N[C@@H](Cc1c[nH]c2ccccc12)C(=O)N[C@@H](CC(C)C)C(=O)N[C@H](C(=O)N[C@@H](CCCCN)C(=O)NCC(=O)N[C@@H](CCCN=C(N)N)C(N)=O)C(C)C
713 | 28 | CC[C@H](C)[C@H](NC(=O)[C@H](Cc1ccccc1)NC(=O)[C@H](CCC(=O)O)NC(=O)[C@H](CCCCN)NC(=O)[C@H](C)NC(=O)[C@H](C)NC(=O)[C@H](CCC(N)=O)NC(=O)CNC(=O)[C@H](CCC(=O)O)NC(=O)[C@H](CC(C)C)NC(=O)[C@H](Cc1ccc(O)cc1)NC(=O)[C@H](CCCCNC(=O)COCCOCCNC(=O)CCN1C(=O)C=CC1=O)NC(=O)[C@H](CO)NC(=O)[C@@H](NC(=O)[C@H](CC(=O)O)NC(=O)[C@H](CO)NC(=O)[C@@H](NC(=O)[C@H](Cc1ccccc1)NC(=O)[C@@H](NC(=O)CNC(=O)[C@H](CCC(=O)O)NC(=O)[C@H](C)NC(=O)[C@@H](N)Cc1c[nH]cn1)[C@@H](C)O)[C@@H](C)O)C(C)C)C(=O)N[C@@H](C)C(=O)N[C@@H](Cc1c[nH]c2ccccc12)C(=O)N[C@@H](CC(C)C)C(=O)N[C@H](C(=O)N[C@@H](CCCCN)C(=O)NCC(=O)N[C@@H](CCCN=C(N)N)C(N)=O)C(C)C
